Laboratory results as given in article PMC3466778 (Biochemistry, 2012).

Target: T1, KcsA (Streptomyces lividans, UniProt P0A334)
T1 sequence (P0A334 1-160): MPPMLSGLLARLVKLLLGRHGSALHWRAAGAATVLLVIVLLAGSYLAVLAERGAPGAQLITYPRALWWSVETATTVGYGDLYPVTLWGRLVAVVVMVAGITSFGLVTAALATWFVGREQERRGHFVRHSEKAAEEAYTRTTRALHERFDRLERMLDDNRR
Assay: fluorescence titration
Assay type: binding

## CN(C)c1cccc2c(S(=O)(=O)NCCCCCCCCCCC(=O)O)cccc12 [Dauda]
  Kd: 470 ± 100 nM
